From patent US10308629B2, “1H-pyrrol-3-amines” (BAYER PHARMA AKTIENGESELLSCHAFT, priority 2015, dated 2019)
pIC50: −log10 of the molar value.

Molecular target: (recombinant) catalytic domain of human Bub1 (amino acids 704-1085) (Homo sapiens (Human), UniProt O43683)
Assay: Bub1 kinase assay (TR-FRET)
Type: biochemical
Settings: ATP 10 μM, peptide substrate 1 μM, 60 min at 22° C., read-out: Inhibition of Bub1 kinase IC50
Excerpt: Bub1-inhibitory activities of compounds described in the present invention were quantified using a time-resolved fluorescence energy transfer (TR-FRET) kinase assay which measures phosphorylation of the synthetic peptide Biotin-Ahx-VLLPKKSFAEPG (SEQ ID No. 1) (C-terminus in amide form), purchased from e.g. Biosyntan (Berlin, Germany) by the (recombinant) catalytic domain of human Bub1 (amino acids 704-1085), expressed in Hi5 insect cells with an N-terminal His6-tag and purified by affinity-(Ni-NTA) and size exclusion chromatography.
In a typical assay 11 different concentrations of each compound (0.1 nM, 0.33 nM, 1.1 nM, 3.8 nM, 13 nM, 44 nM, 0.15 μM, 0.51 μM, 1.7 μM, 5.9 μM and 20 μM) were tested in duplicate within the same microtiter plate. To this end, 100-fold concentrated compound solutions (in DMSO) were previously prepared by serial dilution (1:3.4) of 2 mM stocks in a clear low volume 384-well source microtiter plate (Greiner Bio-One, Frickenhausen, Germany), from which 50 nl of compounds were transferred into a black low volume test microtiter plate from the same supplier. Subsequently, 2 μL of Bub1 (the final concentration of Bub1 was adjusted depending on the activity of the enzyme lot in order to be within the linear dynamic range of the assay: typically ˜200 ng/mL were used) in aqueous assay buffer [50 mM Tris/HCl pH 7.5, 10 mM magnesium chloride (MgCl2), 200 mM potassium chloride (KCl), 1.0 mM dithiothreitol (DTT), 0.1 mM sodium ortho-vanadate, 1% (v/v) glycerol, 0.01% (w/v) bovine serum albumine (BSA), 0.005% (v/v) Trition X-100 (Sigma), 1× Complete EDTA-free protease inhibitor mixture (Roche)] were added to the compounds in the test plate and the mixture was incubated for 15 min at 22° C. to allow pre-equilibration of the putative enzyme-inhibitor complexes before the start of the kinase reaction, which was initiated by the addition of 3 μL 1.67-fold concentrated solution (in assay buffer) of adenosine-tri-phosphate (ATP, 10 μM final concentration) and peptide substrate (1 μM final concentration). The resulting mixture (5 μL final volume) was incubated at 22° C. during 60 min. and the reaction w as stopped by the addition of 5 μL of an aqueous EDTA-solution (50 mM EDTA, in 100 mM HEPES pH 7.5 and 0.2% (w/v) bovine serum albumin) which also contained the TR-FRET detection reagents (0.2 μM streptavidin-XL665 [Cisbio Bioassays, Codolet, France] and 1 nM anti-phosho-Serine antibody [Merck Millipore, cat. #35-002] and 0.4 nM LANCE EU-W1024 labeled anti-mouse IgG antibody [Perkin-Elmer, product no. AD0077, alternatively a Terbium-cryptate-labeled anti-mouse IgG antibody from Cisbio Bioassays can be used]). The stopped reaction mixture was further incubated 1 h at 22° C. in order to allow the formation of complexes between peptides and detection reagents. Subsequently, the amount of product was evaluated by measurement of the resonance energy transfer from the Eu-chelate-antibody complex recognizing the Phosphoserine residue to the streptavidin-XL665 bound to the biotin moiety of the peptide. To this end, the fluorescence emissions at 620 nm and 665 nm after excitation at 330-350 nm were measured in a TR-FRET plate reader, e.g. a Rubystar or Pherastar (both from BMG Labtechnologies, Offenburg, Germany) or a Viewlux (Perkin-Elmer) and the ratio of the emissions (665 nm/622 nm) was taken as indicator for the amount of phosphorylated substrate. The data were normalised using two sets of control wells for high−(=enzyme reaction without inhibitor=0%=Minimum inhibition) and low−(=all assay components without enzyme=100%=Maximum inhibition) Bub1 activity. IC50 values were calculated by fitting the normalized inhibition data to a 4-parameter logistic equation (Minimum, Maximum, IC50, Hill; Y=Max+(Min−Max)/(1+(X/IC50)Hill)).

Sequence of (recombinant) catalytic domain of human Bub1 (amino acids 704-1085) (O43683 704-1085): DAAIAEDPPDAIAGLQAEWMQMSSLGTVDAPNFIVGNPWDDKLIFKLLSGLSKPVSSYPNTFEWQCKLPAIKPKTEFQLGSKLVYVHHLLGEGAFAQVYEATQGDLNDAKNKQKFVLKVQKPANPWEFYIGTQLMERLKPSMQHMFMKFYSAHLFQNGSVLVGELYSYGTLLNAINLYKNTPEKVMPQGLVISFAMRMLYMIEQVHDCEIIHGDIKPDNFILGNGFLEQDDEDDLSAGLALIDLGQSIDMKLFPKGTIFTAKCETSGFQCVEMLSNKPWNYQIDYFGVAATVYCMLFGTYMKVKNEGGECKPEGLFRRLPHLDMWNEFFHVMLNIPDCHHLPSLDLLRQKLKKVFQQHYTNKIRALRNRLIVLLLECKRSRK

pIC50 | Compound
6.96 | CC1(C(=O)Nc2cc(-c3[nH]c4c(c3Nc3ccccc3)C(=O)[C@@H]3C[C@]3(C)C4=O)ccn2)CC1 (relative stereo) [Example 33, N-{4-[rel-(4aR,5aS)-3-Anilino-5a-methyl-4,6-dioxo-1,4,4a,5,5a,6-hexahydrocyclopropa[f]indol-2-yl]pyridin-2-yl}-1-methylcyclopropanecarboxamide]
7.46 | Cn1ccc(C(=O)Nc2cc(-c3[nH]c4c(c3Nc3ccccc3)C(=O)[C@H]3C[C@@]3(C)C4=O)ccn2)n1 (relative stereo) [Example 34, 1-Methyl-N-4-[rel-(4aS,5aR)-5a-methyl-4,6-dioxo-3-(phenylamino)-1,4,4a,5,5a,6-hexahydrocyclopropa[f]indol-2-yl]pyridin-2-yl-1H-pyrazole-3-carboxamide]
7.15 | COc1cc(C(=O)Nc2cc(-c3[nH]c4c(c3Nc3ccccc3)C(=O)[C@H]3C[C@@]3(C)C4=O)ccn2)ccc1F (relative stereo) [Example 35, 4-Fluoro-3-methoxy-N-4-[rel-(4aS,5aR)-5a-methyl-4,6-dioxo-3-(phenylamino)-1,4,4a,5,5a,6-hexahydrocyclopropa[f]indol-2-yl]pyridin-2-ylbenzamide]
8.10 | O=c1ccccc2[nH]c(-c3ccncc3)c(Nc3ccccc3)c12 [Example 21, 3-(Phenylamino)-2-(pyridin-4-yl)cyclohepta[b]pyrrol-4(1H)-one]
8.22 | O=C1CCCCc2[nH]c(-c3ccncc3)c(Nc3ccccc3)c21 [Example 22, 3-(Phenylamino)-2-(pyridin-4-yl)-5,6,7,8-tetrahydrocyclohepta[b]pyrrol-4(1H)-one]
7.59 | Cc1ccc(=O)c2c(Nc3ccccc3)c(-c3ccnc(N)c3)[nH]c2c1 [Example 23, 2-(2-Aminopyridin-4-yl)-7-methyl-3-(phenylamino)cyclohepta[b]pyrrol-4(1H)-one]
7.80 | (1S,2S)-2-Fluoro-N-4-[[(4aS,5aS) or (4aR,5aR)]-5a-methyl-4-oxo-3-(phenylamino)-1,4,4a,5,5a,6-hexahydrocyclopropa[f]indol-2-yl]pyridin-2-ylcyclopropanecarboxamide [Example 36]
7.72 | (4aR,5aR or 4aS,5aS)-3-(Phenylamino)-2-(pyridin-4-yl)-4a,5,5a,6-tetrahydrocyclopropa[f]indol-4(1H)-one [Example 13]
8.30 | (4aR,5aR or 4aS,5aS)-5a-Methyl-3-(phenylamino)-2-(pyridin-4-yl)-4a,5,5a,6-tetrahydrocyclopropa[f]indol-4(1H)-one [Example 17]
8.40 | (4aS,5aS or 4aR,5aR)-3-(Phenylamino)-2-(pyridin-4-yl)-4a,5,5a,6-tetrahydrocyclopropa[f]indol-4(1H)-one [Example 14]
8.22 | (4aS,5aS or 4aR,5aR)-5a-Methyl-3-(phenylamino)-2-(pyridin-4-yl)-4a,5,5a,6-tetrahydrocyclopropa[f]indol-4(1H)-one [Example 18]
6.19 | (5R,7S or 5S,7R)-2-(2-Aminopyridin-4-yl)-6,6-dimethyl-3-(phenylamino)-1,5,6,7-tetrahydro-4H-5,7-methanoindol-4-one [Example 3]
5.53 | (5S,7R or 5R,7S)-2-(2-Aminopyridin-4-yl)-6,6-dimethyl-3-(phenylamino)-1,5,6,7-tetrahydro-4H-5,7-methanoindol-4-one [Example 4]
7.44 | N-4-[(4aS,5aS or 4aR,5aR)-5a-Methyl-4-oxo-3-(phenylamino)-1,4,4a,5,5a,6-hexahydrocyclopropa[f]indol-2-yl]pyridin-2-ylacetamide [Example 20]
7.74 | N-4-[[(4aR,5aR) or (4aS,5aS)]-5a-Methyl-4-oxo-3-(phenylamino)-1,4,4a,5,5a,6-hexahydrocyclopropa[f]indol-2-yl]pyridin-2-yl-1H-pyrazole-3-carboxamide [Example 45]
8.30 | N-4-[[(4aS,5aS) or (4aR,5aR)]-5a-Methyl-4-oxo-3-(phenylamino)-1,4,4a,5,5a,6-hexahydrocyclopropa[f]indol-2-yl]pyridin-2-yl-1H-pyrazole-3-carboxamide [Example 44]
8.30 | N-4-[[(7R) or (7S)]-7-Methyl-4-oxo-3-(phenylamino)-1,4,5,6,7,8-hexahydrocyclohepta[b]pyrrol-2-yl]pyridin-2-ylacetamide [Example 39]
7.57 | N-4-[[(7S) or (7R)]-7-Methyl-4-oxo-3-(phenylamino)-1,4,5,6,7,8-hexahydrocyclohepta[b]pyrrol-2-yl]pyridin-2-ylacetamide [Example 38]
7.89 | N-{4-[[(4aR,5aR) or (4aS,5aS)]-3-anilino-5a-methyl-4-oxo-1,4,4a,5,5a,6-hexahydrocyclopropa[f]indol-2-yl]pyridin-2-yl}-3-fluoro-4-methoxybenzamide [Example 50]
8.15 | N-{4-[[(4aS,5aS) or (4aR,5aR)]-3-anilino-5a-methyl-4-oxo-1,4,4a,5,5a,6-hexahydrocyclopropa[f]indol-2-yl]pyridin-2-yl}-2,6-difluorobenzamide [Example 47]
7.92 | N-{4-[[(4aS,5aS) or (4aR,5aR)]-3-anilino-5a-methyl-4-oxo-1,4,4a,5,5a,6-hexahydrocyclopropa[f]indol-2-yl]pyridin-2-yl}-3-fluoro-4-methoxybenzamide [Example 51]

Compound | pIC50
(1S,2S)-2-Fluoro-N-4-[[(4aR,5aR) or (4aS,5aS)]-5a-methyl-4-oxo-3-(phenylamino)-1,4,4a,5,5a,6-hexahydrocyclopropa[f]indol-2-yl]pyridin-2-ylcyclopropanecarboxamide [Example 37] | 7.96
N-4-[(4aR,5aR or 4aS,5aS)-5a-Methyl-4-oxo-3-(phenylamino)-1,4,4a,5,5a,6-hexahydrocyclopropa[f]indol-2-yl]pyridin-2-ylacetamide [Example 19] | 8.10
N-{4-[[(4aR,5aR) or (4aS,5aS)]-3-Anilino-5a-methyl-4-oxo-1,4,4a,5,5a,6-hexahydrocyclopropa[f]indol-2-yl]pyridin-2-yl}-2,6-difluorobenzamide [Example 46] | 8.40
